Several values for one entry are separate records, joined by “and”; a condition that tells them apart may be missing. Identical values can stand only once.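 Protocol summary: plate cells (96-well), add compound at 5 concentrations, incubate 48 h, interpolate endpoints linearly. Abbreviation: GI50, concentration required for 50% inhibition of growth. TGI is the concentration that stops growth completely.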
How the values were obtained:
Experiment in all cases: NCI tumour cell line growth inhibition, 48 h
[1] = system: LOX IMVI melanoma
[2] = system: KM12 colon
[3] = system: OVCAR-4 ovarian
[4] = system: HCT-15 colon
[5] = system: HCT-116 colon
[6] = system: ACHN renal
[7] = system: MALME-3M melanoma
[8] = system: A549 NSCLC
[9] = system: IGROV1 ovarian
[10] = system: UACC-62 melanoma

Structure (SMILES)	TGI [1] [µM]	TGI [2]	TGI [3]	TGI [4] [µM]	TGI [5] [µM]	TGI [6] [µM]	TGI [7] [µM]	TGI [8]	TGI [9] [µM]	TGI [10] [µM]	GI50 [3] [µM]	GI50 [1] [µM]	GI50 [2] [µM]	GI50 [4] [µM]	GI50 [5] [µM]	GI50 [6] [µM]	GI50 [7] [µM]	GI50 [8] [µM]	GI50 [9] [µM]	GI50 [10] [µM]
O=c1cc(C(F)(F)F)c2cc3c(cc2o1)NCCC3	> 100	> 100 µM	> 100 µM	> 100	> 100	> 100	> 100	> 100 µM	> 100											
O=C1NC(=S)NC(=O)C1=Cc1cc2c(cc1[N+](=O)[O-])OCO2		> 100 µM	> 100 µM	> 100	> 100	> 100	> 100	> 100 µM	> 100	> 100										
CCCCCCCCCCC/C(=N/O)c1ccc(O)c2ncccc12	13.6	> 100 µM	19.2 µM		59.9	6.14	12.6	35.8 µM												
O=C1C(Cl)=C(Cl)C(=O)N1C1C2CC3CC(C2)CC1C3 (stereo unspecified)	> 100		> 100 µM	> 100	> 100	> 100	> 100	> 100 µM	> 100	> 100										
O=C1c2cccc3cc([N+](=O)[O-])cc(c23)C(=O)N1CCNCCNCCNCCN1C(=O)c2cccc3cc([N+](=O)[O-])cc(c23)C1=O		0.668 µM and 4.47 µM	0.0473 µM and 0.415 µM	1.08	1.08		0.297	0.287 µM and 0.196 µM	0.205	0.106	< 0.001									
O=C1CCC(Cc2ccc(Cl)cc2Cl)C(=O)N1 (stereo unspecified)	> 100		> 100 µM	> 100	> 100	> 100	> 100	> 100 µM	> 100	> 100										
CC(C)NCCNC(=O)c1ccccc1Nc1c(Cl)cccc1Cl	20.6	36 µM	30.3 µM	26.5	23.4	31.2		33.9 µM	30.7	30.1										
O=C(O)C(=Cc1ccnc2ccccc12)C(=O)O	> 100	> 100 µM		> 100	> 100	> 100	> 100	> 100 µM	> 100	> 100										
CCOc1ccc(N=Cc2cccc3cccnc23)cc1		> 100 µM	> 100 µM	> 100	> 100	> 100	> 100	> 100 µM	> 100	> 100										
C1CC[N-]CC1.C1CC[N-]CC1.C1CC[N-]CC1.C1CC[N-]CC1.[Cl][Rh][Cl]	> 100	21.8 µM	> 100 µM	> 100	> 100	> 100	43.4	> 100 µM	76.8		5.43	10.2	7.04	41.2	4.75	50.1	6.64	3.12	7.85	
O=c1cccc(C#CC#C[C@H]2O[C@@H]2CO)o1	0.901	3.47 µM		1.29		0.985		3.64 µM	1.85	0.531		0.31	0.986	0.353	0.638	0.322		1.77	0.624	0.209
[N-]=[N+]=NC(c1cn(C2CC(O)C(CO)O2)c(=O)[nH]c1=O)C(Br)I (stereo unspecified)	> 100	> 100 µM		> 100	> 100	> 100	> 100	> 100 µM	> 100	> 100										
Nc1ccccc1C#C/C=C\C#Cc1ccccc1C(F)(F)F	11.5	12.7 µM		12.5	> 35.4	15.8		15.5 µM	> 55.8	3.04		0.441	1	1.13	0.432	0.323		0.722	1.34	0.255
O=C1C(Cl)C(c2cccc(O)c2)N1n1cnc2ccccc2c1=O (stereo unspecified)	> 100		> 100 µM	> 100	> 100	> 100	> 100	> 100 µM	> 100	> 100										
O=S(=O)([O-])c1cccc2cccc(N=Cc3ccccc3[O-])c12.O=S(=O)([O-])c1cccc2cccc(N=Cc3ccccc3[O-])c12.[O]=[U]=[O]	> 100		> 100 µM	> 100	> 100	> 100	> 100	> 100 µM	> 100	> 100	41.6	55.9		49	22.3	38.5	> 100	44.4	70.6	> 100
COC(=O)C1CC(C(=O)OC)c2nc3cc(C)ccc3nc21 (stereo unspecified)	> 100	> 100 µM	> 100 µM	> 100		> 100	> 100	> 100 µM	> 100	> 100										
OC1(C(O)(c2ccc(-c3ccccc3)cc2)c2ccc(-c3ccccc3)cc2)CCCCC1	> 100	> 100 µM	> 100 µM	> 100	> 100	> 100		> 100 µM	> 100	> 100										
OCCCCC#Cc1ccccc1C#Cc1ccccc1			53.2 µM	24.2	31.6	29.1	32.1	70.4 µM	> 100	23.5	18			11.7	16.8	15.2	16.9	21.3	30.9	11.1
CCCN(CCCCC(NC(C)=O)C(=O)NCc1ccccc1)C(=O)NCCCl (stereo unspecified)		> 100 µM	> 100 µM	> 100	> 100	> 100	> 100	> 100 µM		> 100										
